Measurements as given in article PMC8187357 (Communications Biology, 2021).
Where “and” joins values, the source holds several entries; their conditions need not be identical. Identical values can stand only once. Entries after “also recorded” stand apart in the source; their conditions may differ.

How the values were obtained:
Somatostatin sst = experiment: CEREP 80 panel binding: Somatostatin; details: 10 µM
Method: (§1) CEREP 80 panel assay was carried out by Eurofins Cerep Panlabs facility at France. A series of binding assays was carried out to understand the off-target toxicity of CA-170. CA-170 was tested at 10 μM test concentration in duplicates. Compound binding was calculated as a % inhibition of the binding of a radioactively labeled ligand specific for each target. In each experiment the respective reference compound was tested concurrently with CA-170, and the data were compared with historical values determined at Eurofins. The experiment was accepted in accordance with Eurofins validation standard operating procedure. The results are expressed as a percent of control specific binding; (measured specific binding / control specific binding) × 100 and as a percent inhibition of control specific binding; 100−(measured specific binding / control specific binding) × 100 obtained in the presence of CA-170. The IC50 values (concentration causing a half-maximal inhibition of control specific binding) and Hill coefficients (nH) were determined by non-linear regression analysis of the competition curves generated with mean replicate values using Hill equation curve fitting.

Sigma = experiment: CEREP 80 panel binding: Sigma; details: 10 µM
Method: as §1

PD-L2 = molecular target: T1, PD-L2 (Mus musculus, UniProt Q9WUL5); experiment: Rescue of IFN-γ release inhibited by PD-L2, mouse splenocytes; format: cell-based; details: mean ± S.D.; n=2; read-out: Mouse Splenocyte IFN-γ Rescue EC50 PD-L2
T1 construct: purchased R&D Systems 1022-PL-100
Method: (§2) The ability of peptides, peptidomimetics, and small molecules were analyzed for their ability to rescue T-cell proliferation or IFN-γ release from the inhibitory activity of PD-L1 or PD-L2 in a splenocyte/PBMC-based functional assay as per the protocols reported in publication. […] For all in vitro assays, test agent stock was prepared in water and diluted further in the assay media to achieve test concentrations. Each experimental condition was carried out in triplicates. Percent rescue for a given test compound concentration was calculated by normalizing individual percent test agent proliferation or IFN-γ release values to percent anti-CD3 and anti-CD28 antibodies stimulated proliferation or IFN-γ release. EC50 values were derived by plotting transformed data into non-linear fit in sigmoidal dose–response curve using GraphPad Prism software (Version 7).

Plasma stability, mice = details: mouse
Method: (§3) Test compounds were tested for plasma stability (test concentration of 10 μM) as per the protocols reported in publication[20].

Chemokines CCR1, CXCR2 = experiment: CEREP 80 panel binding: Chemokines; details: 10 µM
Method: as §1

Bombesin BB = experiment: CEREP 80 panel binding: Bombesin; details: 10 µM
Method: as §1

GABA = experiment: CEREP 80 panel binding: GABA; details: 10 µM
Method: as §1

PD-L1 [1] = molecular target: PD-L1 (Homo sapiens, UniProt Q9NZQ7); experiment: SPR and solution NMR using recombinant extracellular domains; format: binding; parameters: SPR and solution NMR using recombinant proteins containing extracellular domains; host or cells: E. coli (said of the solution NMR studies); details: recombinant proteins containing extracellular domains
PACAP,VIP1 = experiment: CEREP 80 panel binding: VIP; details: 10 µM
Method: as §1

[2] = Phase 1, cited from earlier work
Melatonin MT1 = molecular target: T2, Melatonin MT1 (Homo sapiens, UniProt P48039); experiment: CEREP 80 panel binding: Melatonin; details: read-out: % Inhibition of Control Specific Binding
T2 construct: Eurofins Cerep Panlabs (contract assay)
Method: as §1

[3] = test system: Classical Hodgkin lymphoma; parameters: method as in doi:10.1093/annonc/mdz253.035; details: Phase 2, Lugano criteria; cited from earlier work
CT26 tumor model = experiment: Tumor-infiltrating Tregs and CD8/FoxP3 ratio in CT26 model; format: in vivo, mouse
Excerpt: Supplementary Figure 2: Effect of CA-170 alone and in combination with CTX on CD8/FoxP3 […]
administration of CA-170 in CT26 tumor model, as observed by the measuring CD4+CD25+FoxP3+ cells. However, an increase in the number of infiltrating CD8+ T cells increased in CA-170 + CTX treated group, led to a favourable increase in the ratio of CD8+T cells […]
(1 picture or pasted object on this page, not shown here)

[4] = test system: Amine transporters DA, NE, 5HT; experiment: CEREP 80 panel binding: Amine transporters; details: 10 µM
Method: as §1

PD-L1 [5] = molecular target: T3, PD-L1 (Mus musculus, UniProt Q9EP73); experiment: Rescue of PD-L1 mediated inhibition of proliferation, mouse splenocytes; format: cell-based; details: splenocyte-based assay
T3 construct: purchased R&D Systems 1019-B7-100
Method: as §2

Angiotensin -II AT1, AT2 = experiment: CEREP 80 panel binding: Angiotensin-II; details: 10 µM
Method: as §1

[6] = test system: Ion Channels Ca2+, Kv, Skca, Na2+; experiment: CEREP 80 panel binding: Ion Channels; details: 10 µM
Method: as §1

PDGF = experiment: CEREP 80 panel binding: Growth factors; details: 10 µM
Method: as §1

PD-L1 [7] = molecular target: PD-L1 (Macaca fascicularis, UniProt G7PSE7); experiment: Rescue of IFN-γ release inhibited by PD-L1, monkey PBMC; format: cell-based; details: n=1
Method: as §2

[8] = test system: B7.1-CD28 co-stimulatory pathway; experiment: CD28-B7.1 functional assay (IL-2, Jurkat T cells); format: cell-based, human; details: for IL2: Jurkat + PHA 5 µg/mL + B7.1 1 µg/mL, replicates
Method: Impact of CA-170 on immunostimulatory interaction was examined in a Jurkat T-cell-based assay in which the ability of B7-1 to induce production of IL-2 was monitored upon stimulation with PHA. Briefly, Jurkat T cells (0.25 × 10^5 cells/well of a 96-well plate) grown and starved in serum-free RPMI1640 media for 2 h were stimulated with PHA (5 µg/mL) and B7.1 (1.0 µg/mL) and different concentrations of CA-170 and cultured for 48 h at 37 °C. After indicated time of incubation, culture supernatant was analyzed for IL-2 by ELISA. Anti-CD28 antibody and isotypes were used as controls.

Bradykinin B2 = molecular target: T4, Bradykinin B2 (Homo sapiens, UniProt P30411); experiment: CEREP 80 panel binding: Bradykinin; details: read-out: % Inhibition of Control Specific Binding
T4 construct: Eurofins Cerep Panlabs (contract assay)
Method: as §1

Endothelin ETA, ETB = experiment: CEREP 80 panel binding: Endothelin; details: 10 µM
Method: as §1

Chain of PD-L1 (Homo sapiens, UniProt Q9NZQ7) (Q9NZQ7 19-238 limits assumed, species assumed): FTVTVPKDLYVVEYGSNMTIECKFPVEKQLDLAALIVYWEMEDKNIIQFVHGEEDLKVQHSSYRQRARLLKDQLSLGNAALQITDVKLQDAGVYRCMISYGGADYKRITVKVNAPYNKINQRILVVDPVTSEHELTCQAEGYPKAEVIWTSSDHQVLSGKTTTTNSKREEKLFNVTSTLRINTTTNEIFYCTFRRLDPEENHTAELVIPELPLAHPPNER
T4 sequence (P30411 whole entry): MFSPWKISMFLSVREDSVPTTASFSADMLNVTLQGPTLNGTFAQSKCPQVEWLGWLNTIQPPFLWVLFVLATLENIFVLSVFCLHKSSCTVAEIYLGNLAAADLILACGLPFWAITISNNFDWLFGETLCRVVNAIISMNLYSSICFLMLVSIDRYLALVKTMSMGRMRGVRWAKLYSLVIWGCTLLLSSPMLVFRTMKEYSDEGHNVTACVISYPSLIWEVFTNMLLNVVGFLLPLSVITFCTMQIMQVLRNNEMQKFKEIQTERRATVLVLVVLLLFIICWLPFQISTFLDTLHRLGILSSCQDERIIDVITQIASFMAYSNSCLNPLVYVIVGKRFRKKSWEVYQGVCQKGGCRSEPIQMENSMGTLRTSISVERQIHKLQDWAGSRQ
Chain of PD-L1 (Macaca fascicularis, UniProt G7PSE7) (G7PSE7 19-239): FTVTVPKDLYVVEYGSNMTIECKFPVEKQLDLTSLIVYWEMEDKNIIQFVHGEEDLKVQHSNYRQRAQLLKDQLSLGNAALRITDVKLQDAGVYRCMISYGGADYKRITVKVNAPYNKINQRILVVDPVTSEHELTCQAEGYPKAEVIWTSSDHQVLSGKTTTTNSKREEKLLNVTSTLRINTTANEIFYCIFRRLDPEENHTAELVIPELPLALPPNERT
T3 sequence (Q9EP73 with tags, fused parts or gaps limits assumed): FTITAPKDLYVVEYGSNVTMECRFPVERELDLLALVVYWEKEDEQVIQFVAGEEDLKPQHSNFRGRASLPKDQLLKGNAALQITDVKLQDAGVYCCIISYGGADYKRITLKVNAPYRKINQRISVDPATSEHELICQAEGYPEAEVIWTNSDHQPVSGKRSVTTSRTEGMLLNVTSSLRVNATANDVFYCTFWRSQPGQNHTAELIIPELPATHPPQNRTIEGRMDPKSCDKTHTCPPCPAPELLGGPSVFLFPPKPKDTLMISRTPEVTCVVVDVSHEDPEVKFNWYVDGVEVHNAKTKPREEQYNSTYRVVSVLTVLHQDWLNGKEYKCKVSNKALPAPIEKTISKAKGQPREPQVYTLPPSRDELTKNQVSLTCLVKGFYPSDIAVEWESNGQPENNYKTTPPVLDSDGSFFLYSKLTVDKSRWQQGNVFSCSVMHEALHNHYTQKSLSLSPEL
T1 sequence (Q9WUL5 with tags, fused parts or gaps limits assumed): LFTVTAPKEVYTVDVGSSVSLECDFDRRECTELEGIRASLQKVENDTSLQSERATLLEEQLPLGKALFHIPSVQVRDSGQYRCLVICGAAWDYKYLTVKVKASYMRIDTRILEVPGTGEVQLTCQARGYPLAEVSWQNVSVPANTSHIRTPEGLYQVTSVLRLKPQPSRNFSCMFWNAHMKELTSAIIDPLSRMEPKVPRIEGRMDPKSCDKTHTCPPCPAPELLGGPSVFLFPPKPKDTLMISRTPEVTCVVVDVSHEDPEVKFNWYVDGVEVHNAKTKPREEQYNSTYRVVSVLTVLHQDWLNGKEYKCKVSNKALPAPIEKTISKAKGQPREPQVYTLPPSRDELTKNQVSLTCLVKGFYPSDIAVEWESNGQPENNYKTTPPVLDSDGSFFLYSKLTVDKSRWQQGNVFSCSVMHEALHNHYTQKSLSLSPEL
T2 sequence (P48039 whole entry): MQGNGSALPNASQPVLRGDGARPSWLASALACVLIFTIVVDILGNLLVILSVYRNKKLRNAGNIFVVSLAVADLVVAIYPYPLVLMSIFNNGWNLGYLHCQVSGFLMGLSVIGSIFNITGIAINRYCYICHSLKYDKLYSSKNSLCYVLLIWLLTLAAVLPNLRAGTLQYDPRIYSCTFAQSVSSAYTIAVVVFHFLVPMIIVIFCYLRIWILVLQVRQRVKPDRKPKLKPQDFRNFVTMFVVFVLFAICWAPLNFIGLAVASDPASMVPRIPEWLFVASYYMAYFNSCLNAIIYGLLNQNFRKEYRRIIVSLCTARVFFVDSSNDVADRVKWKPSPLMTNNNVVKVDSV
Method for Plasma stability, human: as §3
Method for Plasma stability, rat: as §3

C[C@@H](O)[C@H](NC(=O)N[C@@H](CC(N)=O)c1nc([C@@H](N)CO)no1)C(=O)O [CA-170]
% Inhibition of Control Specific Binding (Somatostatin sst): 1%
% Inhibition of Control Specific Binding (Sigma): 20%
EC50 (PD-L2): 78.3 nM
remaining at 4 h, 10 μM (Plasma stability, mice): > 95%
remaining at 4 h, 10 μM (Plasma stability, human): > 95%
% Inhibition of Control Specific Binding (Chemokines CCR1, CXCR2): 1%
% Inhibition of Control Specific Binding (Bombesin BB): < 0%
% Inhibition of Control Specific Binding (GABA): 11%
remaining at 4 h, 10 μM (Plasma stability, rat): > 95%
binding to PD-L1 by SPR and solution NMR (in words) (PD-L1 [1]): a definitive binding could not be established; also recorded: lack of binding
% Inhibition of Control Specific Binding (PACAP,VIP1): ≤ 9%
peripheral T-cell activation (in words) ([2]; circulating CD8+ and CD4+ T cells expressing CD69, Granzyme B, OX-40): Evidence of peripheral T-cell activation
T1/2 ([2]; oral 50 to 1200 mg): 4 to 9.5 h
safety profile (in words) ([2]; oral 50 to 1200 mg): acceptable safety profile
inhibition at 10 µM (Melatonin MT1): 5%
ORR [3]: 30%
levels of tumor-infiltrating Tregs (CD4+CD25+FoxP3+ cells; in words) (CT26 tumor model; CA-170): No significant change
ratio of CD8+T cells to Tregs (in words) (CT26 tumor model; CA-170 + CTX): increased significantly
% Inhibition of Control Specific Binding [4]: ≤ 1%
EC50 (PD-L1 [5]): 15.4 ± 1.3 nM
% Inhibition of Control Specific Binding (Angiotensin -II AT1, AT2): ≤ 5%
% Inhibition of Control Specific Binding [6]: 1%
% Inhibition of Control Specific Binding (PDGF): 6%
EC50 (PD-L1 [7]): 97.8 nM
IL2 ([8]; 10 nM): 70.45 pg/mL and 63.796 pg/mL and 63.436 pg/mL
IL2 ([8]; 100 nM): 83.976 pg/mL and 80.412 pg/mL and 77.892 pg/mL
IL2 ([8]; 1000 nM): 83.364 pg/mL and 84.022 pg/mL and 79.85 pg/mL
inhibition of B7-1-mediated IL-2 secretion (in words) ([8]; Jurkat cells stimulated with PHA + human B7-1): did not inhibit IL-2 secretion
inhibition at 10 µM (Bradykinin B2): < 0%
% Inhibition of Control Specific Binding (Endothelin ETA, ETB): ≤ 9%
